The results in this text go back to patent US5057523A, “Dipeptide quinolone derivatives” (Abbott Laboratories, priority 1989, dated 1991).

In brackets after ≈: the same amount, converted by molar mass. Where a name gives a salt, the structure may show the parent alone. Bounds are passed on as bounds.

In test [1] the test system is Ps. Aeruginosa A5007. Nature of the test: Second in vitro test, MIC in Brain Heart Infusion Broth (BHIB).
Method: (§1) The in vitro antibacterial activity of the test compounds was determined by conventional agar dilution procedures. The organisms were grown overnight in brain-heart infusion (BHI) broth (Difco 0037-01-6) at 36° C. Twofold dilutions of the stock solution (2000 mcg/mL) of the test compound were made in BHI agar to obtain a test concentration ranging from 200 to 0.005 mcg/mL. The plate was inoculated with approximately 10^4 organisms. It was then incubated at 36° C. for 18 h.
Test [2] concerns Stap. Aureus NCTC 10649. Nature of the test: Acute mouse protection test. The format is in vivo. Conditions: mice infected intraperitoneally with Stap. Aureus NCTC 10649, dosed at 1 and 5 hours post-infection.
For test [3], the system named is P. Aeruginosa A5007. Description: Acute mouse protection test. Conditions: mice infected intraperitoneally with P. Aeruginosa A5007, dosed at 1 and 5 hours post-infection. The test is classed as in vivo.
In test [4] the test system is E. Coli Juhl. Nature of the test: Second in vitro test, MIC in Brain Heart Infusion Broth (BHIB).
Method: as §1
For test [5], the system named is Stap. Aureus CMX 553. The test is described as above.
Method: as §1
The test system of test [6] is Strep pyogenes EES 61. The description is as above.
Method: as §1
Test [7] has as its system E. Coli Juhl. Description: Acute mouse protection test. The format is in vivo. The settings on record: mice infected intraperitoneally with E. Coli JUHL, dosed at 1 and 5 hours post-infection.

In general, MIC refers to the lowest concentration that inhibits growth of the organism. Higher therefore signals a need for much substance. In the case of `NC(Cc1ccc(O)cc1)C(=O)NC1CCN(c2nc3c(cc2F)c(=O)c(C(=O)O)cn3-c2ccc(F)cc2F)C1` (stereo not shown) [Example 13], the MIC in test [1] is 50 mg/L (≈ 88.1 µM). For the same compound, in test [2], the “Oral (ED50)” value is on record as 1.7 mg/kg/day.

On to `CS(=O)(=O)CC[C@H](N)C(=O)NC1CCN(c2nc3c(cc2F)c(=O)c(C(=O)O)cn3-c2ccc(F)cc2F)C1.Cl` (stereo partly drawn) [Example 31c, 7-[3 L-Methioninesulfone Amino-1-Pyrrolidinyl]-1-(2,4-Difluorophenyl)-6-Fluoro-1,4-Dihydro-4-Oxo 1,8-Naphthyridine 3-Carboxylic Acid Hydrochloride], for which the “Oral (ED50)” value in test [3] is 7.8 mg/kg/day; in test [7], 1.8 mg/kg/day; in test [2], 1.8 mg/kg/day. The MIC in test [4] was 12.5 mg/L; in test [5], 25 mg/L; in test [1] it was over 100 mg/L; in test [6], 25 mg/L.

`Cl.N[C@@H](CC(=O)O)C(=O)NC1CCN(c2nc3c(cc2F)c(=O)c(C(=O)O)cn3-c2ccc(F)cc2F)C1` (stereo partly drawn) [Example 45, 7-(3-L-Asp-amino-1-pyrrolidinyl)-1-(2,4-difluorophenyl)-6-fluoro-1,4-dihyd ro-4-oxo-1,8-naphthyridine-3-carboxylic acid hydrochloride]: the results for the “Oral (ED50)” value in test [3] and in test [2] were 13.0 mg/kg/day and 1.5 mg/kg/day, respectively.

In the case of `CCC[C@H](NC(=O)CNC(=O)CN)C(=O)NC1CCN(c2nc3c(cc2F)c(=O)c(C(=O)O)cn3-c2ccc(F)cc2F)C1` (stereo partly shown) [Example 30], the “Oral (ED50)” value in test [3] worked out at 3.3 mg/kg/day; in test [2], 2.2 mg/kg/day. For the same compound, the minimum inhibitory concentration (MIC) is 25 mg/L (≈ 40.5 µM) in test [4], 25 mg/L (≈ 40.5 µM) in test [5], over 100 mg/L in test [1] and 100 mg/L (≈ 162 µM) in test [6].

As for `Cl.Cl.NCCCC[C@H](N)C(=O)NC1CCN(c2nc3c(cc2F)c(=O)c(C(=O)O)cn3-c2ccc(F)cc2F)C1` (stereo partly shown) [Example 46, 7-(3-Lys-amino-1-pyrrolidinyl)-1-(2,4-difluorophenyl)-6-fluoro-1,4-dihydro-4-oxo-1,8-naphthyridine-3-carboxylic acid dihydrochloride], the minimal inhibitory concentration (MIC) in test [5] was 100 mg/L; in test [1], over 100 mg/L; in test [6], 100 mg/L. Also, the “Oral (ED50)” value in test [2] was 3.4 mg/kg/day.

For the compound `CCCC(N)C(=O)NC1CCN(c2nc3c(cc2F)c(=O)c(C(=O)O)cn3-c2ccc(F)cc2)C1` (stereo not shown) [Example 26i], the values for the minimum inhibitory concentration (MIC) in test [4] and in test [1] were 0.39 mg/L (≈ 0.803 µM) and 6.2 mg/L (≈ 12.8 µM), respectively. The “Oral (ED50)” value in test [2] was 5.3 mg/kg/day.

Regarding `CC(C)CC(N)C(=O)NC1CCN(c2nc3c(cc2F)c(=O)c(C(=O)O)cn3C2CC2)C1` (stereo not shown) [Example 26o], the “Oral (ED50)” value came out at 6.2 mg/kg/day in test [3], 1.2 mg/kg/day in test [7] and 4.0 mg/kg/day in test [2]. Moreover, the minimum inhibitory concentration (MIC) in test [4] stood at 0.2 mg/L (≈ 0.449 µM); in test [5], 0.39 mg/L (≈ 0.875 µM); in test [6] it was 3.1 mg/L (≈ 6.96 µM).

For `CC(N)C(=O)NC1CCN(c2c(F)cc3c(=O)c(C(=O)O)cn(C4CC4)c3c2F)C1` (stereo not shown) [Example 26s], the “Oral (ED50)” value in test [3] is given as 5.0 mg/kg/day; in test [7], 1.8 mg/kg/day; in test [2], 4.8 mg/kg/day.

With `Cl.Cl.N[C@@H](Cc1c[nH]cn1)C(=O)NC1CCN(c2nc3c(cc2F)c(=O)c(C(=O)O)cn3-c2ccc(F)cc2F)C1` (stereo partly drawn) [Example 44c, 7-[3-L-Histidine-Amino-1-Pyrrolidinyl)-1-(2,4-Difluorophenyl)-6-Fluoro-1,4-Dihydro-4-oxo-1,8-Naphthyridine-3-Carboxylic Acid Dihydrochloride], the results for the “Oral (ED50)” value in test [3] and in test [2] were 51.3 mg/kg/day and 4.0 mg/kg/day, respectively. The minimal inhibitory concentration (MIC) is 64 mg/L in test [4], 16 mg/L in test [5], over 64 mg/L in test [1] and 32 mg/L in test [6].

On to `CCCC(N)C(=O)NC1CCN(c2c(F)cc3c(=O)c(C(=O)O)cn(C4CC4)c3c2F)C1` (stereo not shown) [Example 26r], for which the “Oral (ED50)” value in test [3] was 7.3 mg/kg/day; in test [7], 2.3 mg/kg/day; in test [2] it was 3.0 mg/kg/day.

Take `CC(N)C(=O)NC(Cc1ccccc1)C(=O)NC1CCN(c2nc3c(cc2F)c(=O)c(C(=O)O)cn3-c2ccc(F)cc2F)C1` (stereo not shown) [Example 11]: the MIC came out at 16 mg/L (≈ 25.7 µM) in test [4] and 16.0 mg/L (≈ 25.7 µM) in test [5]. Also, the “Oral (ED50)” value in test [2] is 2.0 mg/kg/day.

For the compound `NC(=O)C[C@H](N)C(=O)NC1CCN(c2nc3c(cc2F)c(=O)c(C(=O)O)cn3-c2ccc(F)cc2F)C1` (stereo partly drawn) [Example 41, 7-(3-L-Asparagine-amino-1-pyrrolidinyl)-1-(2,4-6-fluoro-1,4-dihydro-4-oxo-1,8-difluorophenyl)-3-carboxylic acid hydrochloride], the “Oral (ED50)” value in test [2] amounted to 2.9 mg/kg/day.

Compound `CCC[C@H](N)C(=O)NC1CCN(c2nc3c(cc2F)c(=O)c(C(=O)O)cn3CC)C1` (stereo partly shown) [Example 26ff] registered a minimum inhibitory concentration (MIC) in test [6] of 6.2 mg/L (≈ 14.8 µM).

Regarding `CCCC(N)C(=O)NC1CCN(c2cc3c(cc2F)c(=O)c(C(=O)O)cn3-c2ccc(F)cc2)C1` (stereo not shown) [Example 26h], the MIC in test [4] was found to be 0.78 mg/L (≈ 1.61 µM); in test [5], 0.78 mg/L (≈ 1.61 µM); in test [1], 6.2 mg/L (≈ 12.8 µM). Further, the “Oral (ED50)” value in test [2] turned out to be 4.0 mg/kg/day.

As to `CCCC(N)C(=O)NC1CCN(c2cc3c(cc2F)c(=O)c(C(=O)O)cn3-c2ccc(F)cc2F)C1` (stereo not shown) [Example 26b], the figures for the MIC in test [4], in test [5] and in test [1] were 0.78 mg/L (≈ 1.55 µM), 0.39 mg/L (≈ 0.776 µM) and 6.2 mg/L (≈ 12.3 µM), respectively.

For `CCCC(N)C(=O)NC1CCN(c2cc3c(cc2F)c(=O)c(C(=O)O)cn3C2CC2)C1` (stereo not shown) [Example 26l], the “Oral (ED50)” value in test [7] is listed as 9.4 mg/kg/day.

On to `Cl.NCC(=O)N[C@@H](Cc1ccccc1)C(=O)NC1CCN(c2cc3c(cc2F)c(=O)c(C(=O)O)cn3-c2ccc(F)cc2F)C1` (stereo partly drawn) [Example 26jj, 1-(2,4-Difluorophenyl)-6-Fluoro-7-(3-Gly-L-Phe -Amino 1-Pyrrolidinyl)-1,4-Dihydro-4-Oxo-Quinoline-3-Carboxylic Acid Hydrochloride], for which the MIC in test [4] stood at 16 mg/L; in test [5], 16 mg/L; in test [1], 64 mg/L; in test [6] it was 32 mg/L.

Consider `CC(C)CC(N)C(=O)NC1CCN(c2nc3c(cc2F)c(=O)c(C(=O)O)cn3-c2ccc(F)cc2F)C1` (stereo not shown) [Example 21], for which the results for the minimum inhibitory concentration (MIC) in test [1] and in test [6] were 25 mg/L (≈ 48.3 µM) and 6.2 mg/L (≈ 12 µM), respectively. Moreover, in test [2], the “Oral (ED50)” value worked out at 2.4 mg/kg/day.

For the compound `O=C(O)c1cn(-c2ccc(F)cc2F)c2nc(N3CCC(NC(=O)C4CCCN4)C3)c(F)cc2c1=O` (stereo not shown) [Example 28], the “Oral (ED50)” value in test [2] came to 3.2 mg/kg/day.

With `CC(N)C(=O)NC1CCN(c2nc3c(cc2F)c(=O)c(C(=O)O)cn3-c2ccc(F)cc2F)C1` (stereo not shown) [Example 17], the MIC was 0.5 mg/L (≈ 1.05 µM) in test [4], 2.0 mg/L (≈ 4.21 µM) in test [5] and 16 mg/L (≈ 33.7 µM) in test [1]. For the same compound, the “Oral (ED50)” value in test [7] was 2.0 mg/kg/day; in test [2], 1.7 mg/kg/day.

With `CCCC(N)C(=O)NC1CCN(c2nc3c(cc2F)c(=O)c(C(=O)O)cn3C2CC2)C1` (stereo not shown) [Example 26p], the “Oral (ED50)” value was 9.1 mg/kg/day in test [3] and 4.5 mg/kg/day in test [2]. Further, the MIC stood at 0.39 mg/L (≈ 0.904 µM) in test [4], 0.39 mg/L (≈ 0.904 µM) in test [5] and 3.1 mg/L (≈ 7.18 µM) in test [6].

In test [1], `CSCCC(N)C(=O)NC1CCN(c2nc3c(cc2F)c(=O)c(C(=O)O)cn3-c2ccc(F)cc2F)C1` (stereo not shown) [Example 23] yielded a minimum inhibitory concentration (MIC) of 5.0 mg/L (≈ 9.34 µM). Also, in test [2], the “Oral (ED50)” value was determined as 1.5 mg/kg/day.

On to `NCC(=O)NC1CCN(c2nc3c(cc2F)c(=O)c(C(=O)O)cn3-c2ccc(F)cc2F)C1` (stereo not shown) [Example 7], for which the MIC in test [4] and in test [6] was 0.78 mg/L (≈ 1.69 µM) each time. Besides, the “Oral (ED50)” value turned out to be 5.0 mg/kg/day in test [7] and 2.4 mg/kg/day in test [2].
